Experimental data: patent publication US20220388964A1 (HiberCell, Inc., priority 2019, published 2022)
pIC50: −log10 of the molar value.

Biological target: GCN2 (Homo sapiens, UniProt Q9P2K8)
Experiment: TR-FRET biochemical assay for inhibition of GCN2 (Example 106, for Example 1-4BB)

Chain of GCN2 (Q9P2K8 whole entry): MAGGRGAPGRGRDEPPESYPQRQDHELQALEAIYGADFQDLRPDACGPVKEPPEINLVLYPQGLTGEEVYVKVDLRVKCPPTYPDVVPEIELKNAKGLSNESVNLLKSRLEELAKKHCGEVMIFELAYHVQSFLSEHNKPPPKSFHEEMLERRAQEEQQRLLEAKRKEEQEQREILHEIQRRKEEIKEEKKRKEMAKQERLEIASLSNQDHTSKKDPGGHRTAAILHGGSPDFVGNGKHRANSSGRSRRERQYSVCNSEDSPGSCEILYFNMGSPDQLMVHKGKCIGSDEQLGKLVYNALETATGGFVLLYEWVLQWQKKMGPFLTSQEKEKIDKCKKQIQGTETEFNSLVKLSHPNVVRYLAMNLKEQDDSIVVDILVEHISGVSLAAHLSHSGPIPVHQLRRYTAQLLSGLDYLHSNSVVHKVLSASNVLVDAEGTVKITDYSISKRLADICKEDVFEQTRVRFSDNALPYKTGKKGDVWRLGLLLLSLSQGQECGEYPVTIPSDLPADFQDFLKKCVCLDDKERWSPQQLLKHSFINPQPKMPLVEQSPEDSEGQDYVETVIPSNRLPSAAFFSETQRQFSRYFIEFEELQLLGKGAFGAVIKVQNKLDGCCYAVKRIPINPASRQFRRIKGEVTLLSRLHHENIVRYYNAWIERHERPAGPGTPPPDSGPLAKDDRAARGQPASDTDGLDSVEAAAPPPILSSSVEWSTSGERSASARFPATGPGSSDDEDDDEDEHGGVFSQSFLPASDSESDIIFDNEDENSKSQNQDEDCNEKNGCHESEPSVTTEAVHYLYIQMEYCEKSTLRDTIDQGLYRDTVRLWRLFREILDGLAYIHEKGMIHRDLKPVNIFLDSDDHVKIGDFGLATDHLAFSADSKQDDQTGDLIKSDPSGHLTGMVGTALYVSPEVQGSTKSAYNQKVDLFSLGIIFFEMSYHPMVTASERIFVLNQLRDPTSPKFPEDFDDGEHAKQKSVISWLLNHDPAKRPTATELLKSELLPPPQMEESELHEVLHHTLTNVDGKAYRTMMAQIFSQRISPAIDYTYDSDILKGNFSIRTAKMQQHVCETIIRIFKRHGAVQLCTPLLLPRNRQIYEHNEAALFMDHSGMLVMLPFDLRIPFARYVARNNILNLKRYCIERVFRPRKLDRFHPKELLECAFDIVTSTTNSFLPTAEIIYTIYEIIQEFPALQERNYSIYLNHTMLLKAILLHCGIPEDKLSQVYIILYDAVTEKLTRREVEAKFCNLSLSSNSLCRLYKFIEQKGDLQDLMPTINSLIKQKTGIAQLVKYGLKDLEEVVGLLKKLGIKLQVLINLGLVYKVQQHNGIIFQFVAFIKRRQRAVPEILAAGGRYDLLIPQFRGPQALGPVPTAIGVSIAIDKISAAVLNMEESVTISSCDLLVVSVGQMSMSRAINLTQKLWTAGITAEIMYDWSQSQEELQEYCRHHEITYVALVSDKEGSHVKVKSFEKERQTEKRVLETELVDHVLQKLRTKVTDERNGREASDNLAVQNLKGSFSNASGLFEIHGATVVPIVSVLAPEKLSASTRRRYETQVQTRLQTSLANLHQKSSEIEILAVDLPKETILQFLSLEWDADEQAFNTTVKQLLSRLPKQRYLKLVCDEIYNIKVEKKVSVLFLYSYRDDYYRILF

Compound	pIC50 (Table 9)	pIC50 (Table 8)
Cc1ncc(F)cc1S(=O)(=O)Nc1ccc(F)c(-c2ccc3c(C(=O)Nc4cnoc4)n[nH]c3c2F)c1F [Example 3DQ, 6-(2,6-difluoro-3-((5-fluoro-2-methylpyridine)-3-sulfonamido)phenyl)-7-fluoro-N-(isoxazol-4-yl)-1H-indazole-3-carboxamide]	> 6.30	–
Cc1ncc(F)cc1S(=O)(=O)Nc1ccc(F)c(-c2ccc3c(C(=O)Nc4cnn(C)c4)n[nH]c3c2F)c1F [Example 3DR, 6-(2,6-difluoro-3-((5-fluoro-2-methylpyridine)-3-sulfon-amido)phenyl)-7-fluoro-N-(1-methyl-1H-pyrazol-4-yl)-1H-indazole-3-carboxamide]	> 6.30	–
Cc1ncc(F)cc1S(=O)(=O)Nc1ccc(F)c(-c2ccc3c(C(=O)Nc4cn[nH]c4)n[nH]c3c2F)c1F [Example 3DS, 6-(2,6-difluoro-3-((5-fluoro-2-methylpyridine)-3-sulfonamido)phenyl)-7-fluoro-N-(1H-pyrazol-4-yl)-1H-indazole-3-carboxamide]	> 6.30	–
COc1ncc(Cl)cc1S(=O)(=O)Nc1ccc(F)c(-c2ccc3c(C(=O)NC[C@@H]4CCCN4C)n[nH]c3c2F)c1F [Example 3E, 6-(3-((5-chloro-2-methoxy-pyridine)-3-sulfonamido)-2,6-difluorophenyl)-7-fluoro-N-(((S)-1-methylpyrrolidin-2-yl)methyl)-1H-indazole-3-carboxamide]	> 6.30	–
Cc1ncc(F)cc1S(=O)(=O)Nc1ncc(F)c(-c2ccc3c(-c4ncc[nH]4)n[nH]c3c2F)c1F [Example 3F, N-(3,5-difluoro-4-(7-fluoro-3-(1H-imidazol-2-yl)-1H-indazol-6-yl)pyridin-2-yl)-5-fluoro-2-methylpyridine-3-sulfonamide]	> 6.30	–
COc1ncccc1S(=O)(=O)Nc1ccnc(-c2ccc3c(-c4ncc[nH]4)n[nH]c3c2F)c1C#N [Example 3G, N-(3-cyano-2-(7-fluoro-3-(1H-imidazol-2-yl)-1H-indazol-6-yl)pyridin-4-yl)-2-methoxypyridine-3-sulfonamide]	< 5.00	–
O=S(=O)(Nc1ncc(F)c(-c2ccc3c(-c4ncc[nH]4)n[nH]c3c2F)c1F)c1cc(F)ccc1F [Example 3H, N-(3,5-difIuoro-4-(7-fluoro-3-(1H-imidazol-2-yl)-1H-indazol-6-yl)pyridin-2-yl)-2,5-difluorobenzene-sulfonamide]	> 6.30	–
Cc1ncc(C#N)cc1S(=O)(=O)Nc1ccc(F)c(-c2ccc3c(-c4ncc[nH]4)n[nH]c3c2F)c1F [Example 3I, 5-cyano-N-(2,4-difluoro-3-(7-fluoro-3-(1H-imidazol-2-yl)-1H-indazol-6-yl)phenyl)-2-methylpyridine-3-sulfonamide]	> 6.30	–
COc1ncccc1S(=O)(=O)Nc1nccc(-c2ccc3c(-c4ncc[nH]4)n[nH]c3c2F)c1C#N [Example 3J, N-(3-cyano-4-(7-fluoro-3-(1H-imidazol-2-yl)-1H-indazol-6-yl)pyridin-2-yl)-2-methoxypyridine-3-sulfonamide]	5.00 to 5.60	–
COc1ncc(F)cc1S(=O)(=O)Nc1ncc(F)c(-c2ccc3c(-c4nc(CO)c[nH]4)n[nH]c3c2F)c1F [Example 3K, N-(3,5-difluoro-4-(7-fluoro-3-(4-(hydroxymethyl)-1H-imidazol-2-yl)-1H-indazol-6-yl)pyridin-2-yl)-5-fluoro-2-methoxypyridine-3-sulfonamide]	> 6.30	–
Cc1ncccc1S(=O)(=O)Nc1ncc(F)c(-c2ccc3c(-c4ncc[nH]4)n[nH]c3c2F)c1F [Example 3L, N-(3,5-difluoro-4-(7-fluoro-3-(1H-imidazol-2-yl)-1H-indazol-6-yl)pyridin-2-yl)-2-methylpyridine-3-sulfonamide]	< 5.00	–
COc1ncc(F)cc1S(=O)(=O)Nc1ncc(F)c(-c2ccc3c(C(N)=O)n[nH]c3c2F)c1F [Example 3M, 6-(3,5-difluoro-2-((5-fluoro-2-methoxypyridine)-3-sulfonamido)pyridin-4-yl)-7-fluoro-1H-indazole-3-carboxamide]	< 5.00	–
Cc1ncc(F)cc1S(=O)(=O)Nc1cccc(-c2ccc3c(-c4ncc[nH]4)n[nH]c3c2Cl)c1F [Example 3N, N-(3-(7-chloro-3-(1H-imidazol-2-yl)-1H-indazol-6-yl)-2-fluorophenyl)-5-fluoro-2-methylpyridine-3-sulfonamide]	5.60 to 6.30	–
O=S(=O)(Nc1ccc(F)c(-c2ccc3c(-c4ncc[nH]4)n[nH]c3c2F)c1F)c1cccn2ccnc12 [Example 3O, N-(2,4-difIuoro-3-(7-fluoro-3-(1H-imidazol-2-yl)-1H-indazol-6-yl)phenyl)-imidazo[1,2-a]pyridine-8-sulfonamide]	> 6.30	–
COc1ncc(F)cc1S(=O)(=O)Nc1ncc(F)c(-c2ccc3c(C(N)=O)n[nH]c3c2)c1F [Example 3P, 6-(3,5-difluoro-2-((5-fluoro-2-methoxypyridine)-3-sulfonamido)pyridin-4-yl)-1H-indazole-3-carboxamide]	< 5.00	–
COc1ncc(F)cc1S(=O)(=O)Nc1nccc(-c2ccc3c(C(N)=O)n[nH]c3c2F)c1F [Example 3Q, 6-(3-fluoro-2-((5-fluoro-2-methoxypyridine)-3-sulfonamido)pyridin-4-yl)-7-fluoro-1H-indazole-3-carboxamide]	5.60 to 6.30	–
COc1ncc(F)cc1S(=O)(=O)Nc1ccc(F)c(-c2ccc3c(C(=O)NCCCO)n[nH]c3c2F)c1F [Example 3R, 6-(2,6-difluoro-3-((5-fluoro-2-methoxypyridine)-3-sulfonamido)phenyl)-7-fluoro-N-(3-hydroxypropyl)-1H-indazole-3-carboxamide]	> 6.30	–
CNC(=O)c1n[nH]c2c(F)c(-c3c(F)ccc(NS(=O)(=O)c4cc(F)cnc4OC)c3F)ccc12 [Example 3S, 6-(2,6-difluoro-3-((5-fluoro-2-methoxypyridine)-3-sulfonamido)phenyl)-7-fluoro-N-methyl-1H-indazole-3-carboxamide]	> 6.30	–
COc1ncc(F)cc1S(=O)(=O)Nc1ccc(F)c(-c2ccc3c(C(N)=O)n[nH]c3c2F)c1F [Example 3T, 6-(2,6-difluoro-3-((5-fluoro-2-methoxypyridine)-3-sulfonamido)phenyl)-7-fluoro-1H-indazole-3-carboxamide]	> 6.30	–

Compound	pIC50 (Table 9)	pIC50 (Table 8)
COc1ncc(F)cc1S(=O)(=O)Nc1ccc(F)c(-c2ccc3c(C(=O)NCCCN(C)C)n[nH]c3c2F)c1F [Example 3U, 6-(2,6-difluoro-3-((5-fluoro-2-methoxypyridine)-3-sulfonamido)phenyl)-N-(3-(dimethylamino)propyl)-7-fluoro-1H-indazole-3-carboxamide]	> 6.30	–
COc1ncc(F)cc1S(=O)(=O)Nc1cccc(-c2ccc3c(-c4ncc[nH]4)n[nH]c3c2F)c1F [Example 3V, N-(2-fluoro-3-(7-fluoro-3-(1H-imidazol-2-yl)-1H-indazol-6-yl)phenyl)-5-fluoro-2-methoxypyridine-3-sulfonamide]	> 6.30	–
COc1ncccc1S(=O)(=O)Nc1cccc(-c2ccc3c(-c4ncc[nH]4)n[nH]c3c2F)c1F [Example 3W, N-(2-fluoro-3-(7-fluoro-3-(1H-imidazol-2-yl)-1H-indazol-6-yl)phenyl)-2-methoxypyridine-3-sulfonamide]	> 6.30	–
COc1ncc(F)cc1S(=O)(=O)Nc1ccc(F)c(-c2ccc3c(-c4nc(CO)c[nH]4)n[nH]c3c2F)c1F [Example 3X, N-(2,4-difluoro-3-(7-fluoro-3-(4-(hydroxymethyl)-1H-imidazol-2-yl)-1H-indazol-6-yl)phenl)-5-fluoro-2-methoxypyridine-3-sulfonamide]	> 6.30	–
Cc1ncc(F)cc1S(=O)(=O)Nc1cccc(-c2ccc3c(-c4ncc[nH]4)n[nH]c3c2C)c1F [Example 3Y, N-(3-(3-(1H-imidazol-2-yl)-7-methyl-1H-indazol-6-yl)-2-fluorophenyl)-5-fluoro-2-methylpyridine-3-sulfonamide]	5.60 to 6.30	–
COc1ncc(F)cc1S(=O)(=O)Nc1ccc(F)c(-c2ccc3c(C(=O)Nc4cnn(C)c4)n[nH]c3c2F)c1F [Example 3Z, 6-(2,6-difluoro-3-((5-fluoro-2-methoxypyridine)-3-sulfonamido)phenyl)-7-fluoro-1H-(1-methyl-1H-pyrazol-4-yl)-1H-indazole-3-carboxamide]	> 6.30	–
COC(=O)c1n[nH]c2c(F)c(-c3c(F)ccc(NS(=O)(=O)c4cc(Cl)cnc4OC)c3F)ccc12 [Example 4, Methyl 6-(3-((5-Chloro-2-methoxypyridine)-3-sulfonamido)-2,6-difluorophenyl)-7-fluoro-1H-indazole-3-carboxylate]	–	> 6.30
NC(=O)c1n[nH]c2c(F)c(-c3c(F)ccc(NS(=O)(=O)c4cc(F)cc(CO)c4Cl)c3F)ccc12 [Example 4AB]	> 6.30	–
O=C(Nc1cnn(CCO)c1)c1n[nH]c2c(F)c(-c3c(F)ccc(NS(=O)(=O)c4cc(F)cc(CO)c4Cl)c3F)ccc12 [Example 4AC]	> 6.30	–
O=C1CCc2c1cc(F)cc2S(=O)(=O)Nc1ccc(F)c(-c2ccc3c(C(=O)Nc4cn[nH]c4)n[nH]c3c2F)c1F [Example 4AD]	> 6.30	–
Cn1cc(NC(=O)c2n[nH]c3c(F)c(-c4c(F)ccc(NS(=O)(=O)c5cc(F)cc6c5CCC6O)c4F)ccc23)cn1 (centres unmarked) [Example 4AI]	> 6.30	–
O=C(Nc1cnn(CCO)c1)c1n[nH]c2c(F)c(-c3c(F)ccc(NS(=O)(=O)c4cc(F)cc5c4CCC5O)c3F)ccc12 (centres unmarked) [Example 4AJ]	> 6.30	–
COc1ncc(Cl)cc1S(=O)(=O)Nc1ccc(F)c(-c2ccc3c(-c4cnn[nH]4)n[nH]c3c2F)c1F [Example 4AN]	> 6.30	–
NC1CCc2c1cc(F)cc2S(=O)(=O)Nc1ccc(F)c(-c2ccc3c(-c4ncc[nH]4)n[nH]c3c2F)c1F (centres unmarked) [Example 4AO]	< 5.00	–
CC1CCc2c1cc(F)cc2S(=O)(=O)Nc1ccc(F)c(-c2ccc3c(-c4ncc[nH]4)n[nH]c3c2F)c1F (centres unmarked) [Example 4AQ]	> 6.30	–
Cc1ccc(F)cc1S(=O)(=O)Nc1ccc(F)c(-c2cc3[nH]ncc3cn2)c1F [Example 4BB]	5.60 to 6.30	–
COc1ncc(C#N)cc1S(=O)(=O)Nc1ccc(F)c(-c2ccc3c(C(=O)NCCCO)n[nH]c3c2F)c1F [Example 4C]	5.60 to 6.30	–
COc1ncc(C#N)cc1S(=O)(=O)Nc1ccc(F)c(-c2ccc3c(C(N)=O)n[nH]c3c2F)c1F [Example 4D]	> 6.30	–
Cc1ncc(C#N)cc1S(=O)(=O)Nc1ccc(F)c(-c2ccc3c(C(N)=O)n[nH]c3c2F)c1F [Example 4E]	> 6.30	–
